Read-outs that look alike come from different tables or passages of the source.
Target: T1, human recombinant COX2 (hCOX2) (UniProt P35354)
T1 sequence (P35354 1-604): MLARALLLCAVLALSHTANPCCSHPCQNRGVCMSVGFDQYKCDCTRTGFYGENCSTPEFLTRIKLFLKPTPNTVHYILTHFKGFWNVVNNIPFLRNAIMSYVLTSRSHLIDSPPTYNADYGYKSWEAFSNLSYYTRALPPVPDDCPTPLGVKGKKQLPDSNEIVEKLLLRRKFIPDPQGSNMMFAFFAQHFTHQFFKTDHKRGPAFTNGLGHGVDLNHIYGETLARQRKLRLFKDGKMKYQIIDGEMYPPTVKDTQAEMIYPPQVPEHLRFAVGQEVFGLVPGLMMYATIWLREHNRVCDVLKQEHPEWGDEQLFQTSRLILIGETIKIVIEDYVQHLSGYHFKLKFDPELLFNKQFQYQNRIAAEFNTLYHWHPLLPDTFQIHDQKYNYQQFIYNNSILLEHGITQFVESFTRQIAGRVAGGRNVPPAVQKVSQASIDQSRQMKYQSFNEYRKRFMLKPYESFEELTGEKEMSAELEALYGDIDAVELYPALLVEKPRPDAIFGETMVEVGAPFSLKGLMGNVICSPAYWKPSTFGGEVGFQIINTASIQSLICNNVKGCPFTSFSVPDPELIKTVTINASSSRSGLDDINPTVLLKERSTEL
Experiment: LCMS-based COX2 enzymatic inhibition assay (PGE2 quantification)
Format: biochemical
Design: COX2 2 minutes pge2/pge2d4 area ratio Avg; other: 2 minutes; readout pge2/pge2d4 area ratio; average; COX2 2 minutes pge2/pge2d4 area ratio Avg; LLE; average LLE; COX2 2 minutes pge2 area (counts) Avg; readout pge2 area (counts); other: 2 min; "ovine COX2 (oCOX2), human recombinant COX2 (hCOX2)"
Conditions: for IC50: average
Procedure: We have adapted a previously reported cyclooxygenase enzymatic assay utilizing LCMS quantification of PGE2 as the product of COX-1 and COX2 catalyzed conversion of arachidonic acid to evaluate the binding properties of newly synthesized ligands [Cao, 2011]. These optimized and miniaturized (384-well plates) LCMS-based COX-1 and COX2 enzymatic assays enabled us to quickly evaluate newly synthesized ligands for COX2 binding affinity and selectivity vs COX-1. Using a shorter ligand-enzyme incubation time in the LCMS assay (2 minutes vs 10 minutes) also permitted us to prioritize ligands with faster binding kinetics. Considering the relatively slow on-rate kinetics of known coxibs, due to their 3-step binding mechanism [Marnett, 2009], we believe that optimizing this critical parameter will be key to the successful development of a COX2 PET tracer. Using these enzymatic assays, we have evaluated>200 newly synthesized ligands against COX2 and >20 ligands against COX-1. Another critical property necessary for a good PET radiotracer is to have low non-specific binding (NSB) to increase the free fraction and maximize the signal to noise ratio. This property can be evaluated using in-vitro protein binding assays, and we have now evaluated>50 newly synthesized ligands in mouse, rat and human plasma protein binding (PPB) assays as well as >15 ligands in a mouse brain protein binding (BPB) assay.
Ovine COX-1 (oCOX-1), ovine COX2 (oCOX2), human recombinant COX2 (hCOX2), arachidonic acid, PGE2, d4-PGD2, and […] (labeled with deuterium atoms at positions 3 and 4) were purchased from Cayman Chemicals (Ann Arbor, Mich.). The cofactors (−)epinephrine and hematin, and the COX inhibitors indomethacin, resveratrol and diclofenac were purchased from Sigma-Aldrich (St. Louis, Mo.). Celecoxib was purchased from 3B PharmaChem International (Wuhan, China). All organic solvents were HPLC grade or better and were purchased from Thermo Fisher (Hanover Park, Ill.). Formic acid was purchased from EMD Chemicals (San Diego, Calif.). Purified water was prepared by using a Millipore Milli-Q purification system (Millipore, Billerica, Mass.). All other chemicals and solvents were ACS reagent grade, unless stated otherwise.
In an Eppendorf tube, 146 μL of 100 mM Tris.HCl (pH 8.0) buffer, 2 μL of 100 μM hematin (co-factor) and 10 μL of 40 mM L-epinephrine (co-factor) were mixed at room temperature. Next, 20 μL of Tris.HCl (pH 8.0) buffer containing 0.2 μg COX2 or 0.1 μg COX-1 (approximately 1 unit of enzyme; 1 unit COX utilizes 1 nmol 02/mg/min at 37° C.) was added, and the solution was incubated at room temperature for 2 min. A 2 μL aliquot of the COX inhibitor in DMSO was added to the enzyme solution and preincubated at 37° C. for 10 min. Negative controls were identical except that 2 μL aliquots of DMSO without inhibitor were used instead.
Each COX reaction was initiated by adding 20 μL of arachidonic acid in Tris.HCl (pH 8.0) buffer to give a final concentration of 5 μM; and the reaction was terminated after 2 min by adding 20 μL of 2.0 M HCl. The surrogate standards d4-PGE2 and d4-PGD2 (10 μL aliquot of 50 ng/mL solution in methanol) were added to correct for errors or degradation during sample handling and for variation in injection volume or instrument response during LC-MS-MS. After 30 min, PGE2, PGD2 and their surrogate standards were extracted from each incubation mixture using 800 μL hexane/ethyl acetate (50:50, v/v). The organic phase was removed, evaporated to dryness, and reconstituted in 100 μL methanol/water (50:50, v/v) for analysis using LC-MS-MS.
The concentration of PGE2 in each sample was measured using LC-MS-MS, and the percent of COX inhibition by each test solution was determined by comparing the amount of PGE2 produced in the experiment with that produced in the negative control incubation. The formation of PGD2 was measured for quality control purposes, since the levels of PGD2 should be proportional to those of PGE2. […]

[1] = 2 minutes, readout pge2/pge2d4 area ratio, average LLE
[2] = 2 minutes, readout pge2 area (counts), average LLE
[3] = read-out: COX2 2 minutes pge2/pge2d4 area ratio Avg. IC50 (microM), 2 minutes, readout pge2/pge2d4 area ratio
[4] = 2 minutes, readout pge2/pge2d4 area ratio, read-out: COX2 2 minutes pge2/pge2d4 area ratio Avg. IC50
[5] = 2 minutes, readout pge2 area (counts), read-out: COX2 2 minutes pge2 area (counts) Avg. IC50

SMILES: C[C@@H](Nc1cccc(-c2ccc(S(C)(=O)=O)cc2)n1)c1ccco1 (single isomer, unassigned) [Compound 274]
- COX2 2 minutes pge2/pge2d4 area ratio Avg. LLE [1]: 1.914
- COX2 2 minutes pge2 area (counts) Avg. LLE [2]: 1.914
- IC50 [3]: 5.2 µM

SMILES: CS(=O)(=O)c1ccc(-c2cncc(N3CCOCC3)n2)cc1 [Compound 286]
- COX2 2 minutes pge2/pge2d4 area ratio Avg. LLE [1]: 5.044
- COX2 10 minutes pge2 area (counts) Avg. LLE (10 minutes, readout pge2 area (counts), average LLE): 5.772
- IC50 (10 minutes, readout pge2 area (counts), read-out: COX2 10 minutes pge2 area (counts) Avg. IC50): 0.974 µM
- IC50 [3]: 5.2 µM

SMILES: CS(=O)(=O)c1ccc(-c2cccc(C(=O)Cc3cccs3)n2)cc1 [Compound 206]
- COX2 2 minutes pge2/pge2d4 area ratio Avg. LLE [1]: 2.741
- IC50 [4]: 1.27 µM
- COX2 2 minutes pge2 area (counts) Avg. LLE [2]: 2.638
- IC50 [5]: 1.59 µM

SMILES: CS(=O)(=O)c1ccc(-c2cccc(OCc3ccc(F)cc3)n2)cc1 [Compound 95]
- COX2 2 minutes pge2/pge2d4 area ratio Avg. LLE [1]: 3.43
- IC50 [4]: 0.0711 µM
- COX2 2 minutes pge2 area (counts) Avg. LLE [2]: 3.477
- IC50 [5]: 0.091 µM

SMILES: CS(=O)(=O)c1ccc(-c2cncc(SCc3ccno3)n2)cc1 [Compound 193]
- COX2 2 minutes pge2/pge2d4 area ratio Avg. LLE [1]: 4.9351
- IC50 [4]: 0.772 µM
- COX2 2 minutes pge2 area (counts) Avg. LLE [2]: 4.813
- IC50 [5]: 1.09 µM

SMILES: CS(=O)(=O)c1ccc(-c2cncc(NCc3ccco3)c2)cc1 [Compound 161]
- IC50 [4]: 0.388 µM
- IC50 [5]: 0.337 µM

SMILES: CS(=O)(=O)c1ccc(-c2cccc(NCc3cc[nH]c3)n2)cc1 [Compound 185]
- COX2 2 minutes pge2/pge2d4 area ratio Avg. LLE [1]: 3.623
- IC50 [4]: 0.61 µM
- COX2 2 minutes pge2 area (counts) Avg. LLE [2]: 3.623
- IC50 [5]: 0.572 µM

SMILES: CS(=O)(=O)c1ccc(-c2cncc(NCc3cccs3)n2)c(O)c1 [Compound 137]
- COX2 2 minutes pge2/pge2d4 area ratio Avg. LLE [1]: 4.977
- IC50 [4]: 0.197 µM
- COX2 2 minutes pge2 area (counts) Avg. LLE [2]: 4.936
- IC50 [5]: 0.215 µM

SMILES: CC(=O)c1ncc(NCc2cccs2)nc1-c1ccc(S(C)(=O)=O)cc1 [Compound 248]
- COX2 2 minutes pge2/pge2d4 area ratio Avg. LLE [1]: 3.159
- IC50 [4]: 3.36 µM
- COX2 2 minutes pge2 area (counts) Avg. LLE [2]: 3.163
- IC50 [5]: 3.3 µM

SMILES: CS(=O)(=O)c1ccc(-c2cncc(OCc3ccc(F)cc3)n2)cc1 [Compound 294]
- COX2 2 minutes pge2 area (counts) Avg. LLE [2]: 2.694
- IC50 [3]: 5.2 µM

SMILES: CS(=O)(=O)c1ccc(-c2nncc(NCc3cccs3)n2)cc1 [Compound 171]
- COX2 2 minutes pge2/pge2d4 area ratio Avg. LLE [1]: 4.364
- IC50 [4]: 0.447 µM
- COX2 2 minutes pge2 area (counts) Avg. LLE [2]: 4.345
- IC50 [5]: 0.452 µM

SMILES: CS(=O)(=O)c1ccc(-c2cncc(OCc3ccc(Cl)s3)n2)cc1 [Compound 4]
- COX2 2 minutes pge2/pge2d4 area ratio Avg. LLE [1]: 4.855
- IC50 [4]: 0.006 µM
- COX2 2 minutes pge2 area (counts) Avg. LLE [2]: 4.615
- IC50 [5]: 0.0141 µM

SMILES: Cc1ncc(OCc2cccs2)nc1-c1ccc(S(C)(=O)=O)cc1 [Compound 119]
- COX2 2 minutes pge2/pge2d4 area ratio Avg. LLE [1]: 4.695
- IC50 [4]: 0.116 µM
- COX2 2 minutes pge2 area (counts) Avg. LLE [2]: 4.215
- IC50 [5]: 0.233 µM

SMILES: CS(=O)(=O)c1ccc(-c2cnc(N)c(NCc3cccs3)n2)cc1 [Compound 165]
- COX2 2 minutes pge2/pge2d4 area ratio Avg. LLE [1]: 4.592
- IC50 [4]: 0.425 µM
- COX2 2 minutes pge2 area (counts) Avg. LLE [2]: 4.629
- IC50 [5]: 0.391 µM

SMILES: CS(=O)(=O)c1ccc(-c2cncc(SCc3ccon3)n2)cc1 [Compound 148]
- COX2 2 minutes pge2/pge2d4 area ratio Avg. LLE [1]: 5.484
- IC50 [4]: 0.268 µM
- COX2 2 minutes pge2 area (counts) Avg. LLE [2]: 5.518
- IC50 [5]: 0.255 µM

SMILES: C[S+]([O-])c1ccc(-c2cccc(OCc3cccs3)n2)cc1 (centres unmarked) [Compound 157]
- COX2 2 minutes pge2/pge2d4 area ratio Avg. LLE [1]: 3.382
- IC50 [4]: 0.35 µM
- COX2 2 minutes pge2 area (counts) Avg. LLE [2]: 3.281
- IC50 [5]: 0.428 µM

SMILES: CS(=O)(=O)c1ccc(-c2cncc(NCc3ccoc3)c2)cc1 [Compound 174]
- IC50 [4]: 0.484 µM
- IC50 [5]: 0.481 µM

SMILES: C[C@H](Nc1cccc(-c2ccc(S(C)(=O)=O)cc2)n1)c1ccoc1 (single isomer, unassigned) [Compound 241]
- COX2 2 minutes pge2/pge2d4 area ratio Avg. LLE [1]: 2.087
- IC50 [4]: 2.96 µM
- COX2 2 minutes pge2 area (counts) Avg. LLE [2]: 1.8776
- IC50 [5]: 4.36 µM

SMILES: CS(=O)(=O)c1ccc(-c2cccc(C3CC3c3ccoc3)n2)cc1 (single isomer, unassigned) [Compound 314, 2-[2-(furan-3-yl)cyclopropyl]-6-(4-methanesulfonylphenyl)pyridine]
- COX2 2 minutes pge2 area (counts) Avg. LLE [2]: 2.024
- IC50 (read-out: COX2 2 minutes pge2/pge2d4 area ratio Avg. IC50 (microM), 2 minutes, readout pge2/pge2d4 area ratio, 2 min): 5.2 µM

SMILES: CS(=O)(=O)c1ccc(-c2cncc(NC(=O)c3cccs3)n2)cc1 [Compound 192]
- COX2 2 minutes pge2/pge2d4 area ratio Avg. LLE [1]: 4.414
- IC50 [4]: 0.751 µM
- COX2 2 minutes pge2 area (counts) Avg. LLE [2]: 4.524
- IC50 [5]: 0.602 µM

SMILES: CS(=O)(=O)c1ccc(-c2ccnc(NCc3ccoc3)c2)cc1 [Compound 290]
- IC50 [3]: 5.2 µM

SMILES: CS(=O)(=O)c1ccc(-c2ccc3c(n2)N(Cc2cccs2)CC3)cc1 [Compound 121]
- IC50 [4]: 0.121 µM
- IC50 [5]: 0.124 µM

SMILES: CS(=O)(=O)c1ccc(-c2cccc(C(=O)C(=O)c3cccs3)n2)cc1 [Compound 190]
- COX2 2 minutes pge2/pge2d4 area ratio Avg. LLE [1]: 3.528
- IC50 [4]: 0.711 µM
- COX2 2 minutes pge2 area (counts) Avg. LLE [2]: 3.498
- IC50 [5]: 0.774 µM

SMILES: Cc1cocc1CNc1cccc(-c2ccc(S(C)(=O)=O)cc2)n1 [Compound 40]
- COX2 2 minutes pge2/pge2d4 area ratio Avg. LLE [1]: 4.502
- IC50 [4]: 0.0188 µM
- COX2 2 minutes pge2 area (counts) Avg. LLE [2]: 4.487
- IC50 [5]: 0.0207 µM

SMILES: CS(=O)(=O)c1ccc(-c2ccc3ccn(-c4ccccc4)c3n2)cc1 [Compound 146]
- COX2 2 minutes pge2/pge2d4 area ratio Avg. LLE [1]: 2.102
- IC50 [4]: 0.248 µM
- COX2 2 minutes pge2 area (counts) Avg. LLE [2]: 2.132
- IC50 [5]: 0.201 µM

SMILES: CS(=O)(=O)c1ccc(-c2cncc(OCc3ccccc3)n2)cc1 [Compound 172]
- COX2 2 minutes pge2/pge2d4 area ratio Avg. LLE [1]: 4.174
- IC50 [4]: 0.447 µM
- COX2 2 minutes pge2 area (counts) Avg. LLE [2]: 4.01
- IC50 [5]: 0.52 µM

SMILES: CO/N=C(\c1ccc2ccn(-c3ccc(S(C)(=O)=O)cc3)c2n1)c1cccs1 [Compound 191]
- IC50 [4]: 0.735 µM
- IC50 [5]: 0.886 µM

Source: patent US20220348590A1, “CYCLOOXYGENASE-2 INHIBITORS AND USES THEREOF” (The Board Institute, Inc., priority 2019, published 2022)
